Test results taken from patent US8067598B2, “Heterofused piperidines as orexin antagonists” (Hoffman-La Roche Inc., priority 2007, dated 2011).
No end group written: not given here.

Key:
[1] = target: T1, human orexin-1 (hOX1) receptors (Homo sapiens, UniProt O43613); assay: Intracellular Ca2+ mobilization assay (FLIPR), CHO(dHFr-) cells expressing hOX1; format: cell-based; conditions: antagonism of orexin-A at EC80; Kb=IC50/(1+[A]/EC50); CHO(dHFr-)-OX1R cells
T1 construct: expressed in transfected cells
T1 sequence (O43613 1-425): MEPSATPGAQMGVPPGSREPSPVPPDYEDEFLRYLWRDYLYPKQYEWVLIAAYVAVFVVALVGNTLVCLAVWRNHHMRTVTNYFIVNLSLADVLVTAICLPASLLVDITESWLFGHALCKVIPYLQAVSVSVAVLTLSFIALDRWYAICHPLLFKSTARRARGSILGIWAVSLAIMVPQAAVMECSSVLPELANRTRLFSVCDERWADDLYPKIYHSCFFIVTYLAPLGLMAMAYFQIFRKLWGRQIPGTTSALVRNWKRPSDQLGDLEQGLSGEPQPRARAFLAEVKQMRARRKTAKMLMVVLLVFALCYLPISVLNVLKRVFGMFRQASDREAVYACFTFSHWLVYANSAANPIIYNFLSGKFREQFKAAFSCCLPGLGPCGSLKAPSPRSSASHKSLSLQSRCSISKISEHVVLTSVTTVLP
Protocol: (§1) Intracellular Ca^2+ Mobilization Assay
(§2) The Chinese Hamster Ovary (dHFr-) mutant cell line stably expressing human orexin-1 (hOX1) or human orexin-2 (hOX2) receptors were maintained in Dulbecco's Modified Eagle Medium (1X) with GlutaMax™ 1, 4500 mg/L D-Glucose and Sodium Pyruvate (Catalog No. 31966-021, Invitrogen, Carlsbad, Calif.), 5% dialyzed fetal calf serum (Catalog No. 26400-044), 100 μg/ml penicillin and 100 μg/ml streptomycin. The cells were seeded at 5×10^4 cells/well in the poly-D-lysine treated, 96-well, black/clear-bottomed plates (Catalog No. BD356640, BD Biosciences, Palo Alto, Calif.). 24 h later, the cells were loaded for 1 h at 37° C. with 4 μM Flou-4 acetoxymethyl ester (Catalog No. F-14202, Molecular Probes, Eugene, Oreg.) in FLIPR buffer (1×HBSS, 20 mM HEPES, 2.5 mM Probenecid). Hanks' Balanced Salt Solution (HBSS) (10X) (catalog No. 14065-049) and HEPES (1M) (catalog No. 15630-056) were purchased from Invitrogen, Carlsbad, Calif. Probenecid (250 mM) (catalog No. P8761) was from Sigma, Buchs, Switzerland. The cells were washed five times with FLIPR buffer to remove excess dye and intracellular calcium mobilization, [Ca^2+]i were measured using a Fluorometric Imaging Plate Reader (FLIPR-96, Molecular Devices, Menlo Park, Calif.) as described previously (Malherbe et al., Mol. Pharmacol., 64, 823-832, 2003). Orexin A (catalog No. 1455, Toris Cookson Ltd, Bristol, UK) was used as agonist. Orexin A ([…] stock solution in DMSO) was diluted in FLIPR buffer+0.1% BSA. The EC50 and EC80 values of orexin-A were measured daily from standard agonist concentration-response curves in CHO(dHFr-)-OX1R and -OX2R cell lines. All compounds were dissolved in 100% DMSO. Inhibition curves were determined by addition of 11 concentrations (0.0001-10 μM) of inhibitory compounds and using EC80 value of orexin-A as agonist (a concentration which gave 80% of max agonist response, determined daily). The antagonists were applied 25 min (incubation at 37° C.) before the application of the agonist. Responses were measured as peak increase in fluorescence minus basal, normalized to the maximal stimulatory effect induced by EC80 value of orexin-A or orexin-B. Inhibition curves were fitted according to the Hill equation: y=100/(1+(x/IC50)^nH), where nH=slope factor using Excel-fit 4 software (Microsoft).
(§3) Kb values were calculated according to the following equation Kb=IC50/(1+[A]/EC50) where A is the concentration of agonist added which is very close to agonist EC80 value, and IC50 and EC50 values were derived from the antagonist inhibition and orexin-A or B agonist curves, respectively.

[2] = target: T2, human orexin-2 (hOX2) receptors (Homo sapiens, UniProt O43614); assay: Intracellular Ca2+ mobilization assay (FLIPR), CHO(dHFr-) cells expressing hOX2; format: cell-based; conditions: antagonism of orexin-A at EC80; Kb=IC50/(1+[A]/EC50); CHO(dHFr-)-OX2R cells
T2 construct: expressed in transfected cells
T2 sequence (O43614 1-444): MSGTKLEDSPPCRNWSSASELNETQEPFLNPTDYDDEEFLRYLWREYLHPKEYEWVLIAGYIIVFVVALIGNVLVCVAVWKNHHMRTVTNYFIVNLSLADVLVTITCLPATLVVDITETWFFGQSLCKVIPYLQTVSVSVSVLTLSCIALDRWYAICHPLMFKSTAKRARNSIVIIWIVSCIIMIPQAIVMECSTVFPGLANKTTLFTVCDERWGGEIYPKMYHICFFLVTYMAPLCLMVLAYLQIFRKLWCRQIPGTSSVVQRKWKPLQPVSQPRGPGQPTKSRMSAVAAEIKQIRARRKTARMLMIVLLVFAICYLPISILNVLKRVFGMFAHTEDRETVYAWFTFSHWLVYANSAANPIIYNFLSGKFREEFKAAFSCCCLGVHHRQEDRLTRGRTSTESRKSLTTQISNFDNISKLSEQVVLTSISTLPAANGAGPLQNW
Protocol: as §1, §2, §3

rat = conditions: icv administration (Piper et al., 2000); cited from earlier work

Row | Kb [1] [µM] | Kb [2] [µM] | Molecule | reduction of total REM sleep (rat) [%]
1 | 0.047 | 0.0204 | CNC(=O)C(c1ccccc1)N1CCc2sc(C)cc2C1CCc1ccc(C(F)(F)F)cc1 (single isomer, unassigned) [Example 4, N-Methyl-2-{2-methyl-4-[2-(4-trifluoromethyl-phenyl)-ethyl]-6,7-dihydro-4H-thieno[3,2-c]pyridin-5-yl}-2-phenyl-acetamide] | –
2 | 0.0401 | 0.0091 | CNC(=O)C(c1ccccc1)N1CCc2sc(C)cc2C1CCc1ccc(C(F)(F)F)cc1 (single isomer, unassigned) [Example 6, N-Methyl-2-{2-methyl-4-[2-(4-trifluoromethyl-phenyl)-ethyl]-6,7-dihydro-4H-thieno[3,2-c]pyridin-5-yl}-2-phenyl-acetamide] | –
3 | 0.0311 | 0.0266 | CNC(=O)C(c1ccccc1)N1CCc2sc(C)cc2C1CCc1ccc(OC)cc1 (single isomer, unassigned) [Example 7, 2-{4-[2-(4-Methoxy-phenyl)-ethyl]-2-methyl-6,7-dihydro-4H-thieno[3,2-c]pyridin-5-yl}-N-methyl-2-phenyl-acetamide] | –
4 | 0.0135 | 0.0075 | CNC(=O)C(c1ccccc1)N1CCc2sc(C)cc2C1CCc1ccc(OC)cc1 (single isomer, unassigned) [Example 8, 2-{4-[2-(4-Methoxy-phenyl)-ethyl]-2-methyl-6,7-dihydro-4H-thieno[3,2-c]pyridin-5-yl}-N-methyl-2-phenyl-acetamide] | –
5 | 0.408 | 0.0566 | CNC(=O)C(c1ccccc1)N1CCc2sc(C)cc2C1CCc1ccc(OC)cc1 (single isomer, unassigned) [Example 9, 2-{4-[2-(4-Methoxy-phenyl)-ethyl]-2-methyl-6,7-dihydro-4H-thieno[3,2-c]pyridin-5-yl}-N-methyl-2-phenyl-acetamide] | –
6 | 0.164 | 0.0215 | CNC(=O)C(c1ccccc1)N1CCc2ncccc2C1CCc1ccc(OC)cc1 (single isomer, unassigned) [Example 11, 2-{5-[2-(4-Methoxy-phenyl)-ethyl]-7,8-dihydro-5H-[1,6]naphthyridin-6-yl}-N-methyl-2-phenyl-acetamide] | –
7 | 0.0402 | 0.005 | CNC(=O)C(c1ccccc1)N1CCc2sc(C)c(C)c2C1CCc1ccc(OC)cc1 (single isomer, unassigned) [Example 13, 2-{4-[2-(4-Methoxy-phenyl)-ethyl]-2,3-dimethyl-6,7-dihydro-4H-thieno[3,2-c]pyridin-5-yl}-N-methyl-2-phenyl-acetamide] | –
8 | 0.0221 | 0.0036 | CNC(=O)C(c1ccccc1)N1CCc2sc(C)c(C)c2C1CCc1ccc(OC)cc1 (single isomer, unassigned) [Example 14, 2-{4-[2-(4-Methoxy-phenyl)-ethyl]-2,3-dimethyl-6,7-dihydro-4H-thieno[3,2-c]pyridin-5-yl}-N-methyl-2-phenyl-acetamide] | –
9 | 0.408 | 0.0169 | CNC(=O)C(c1ccccc1)N1CCc2sc(C)c(C)c2C1CCc1ccc(OC)cc1 (single isomer, unassigned) [Example 15, 2-{4-[2-(4-Methoxy-phenyl)-ethyl]-2,3-dimethyl-6,7-dihydro-4H-thieno[3,2-c]pyridin-5-yl}-N-methyl-2-phenyl-acetamide] | –
10 | 0.0524 | 0.0148 | CNC(=O)C(c1ccccc1)N1CCc2ccsc2C1CCc1ccc(C(F)(F)F)cc1 (single isomer, unassigned) [Example 16, N-Methyl-2-phenyl-2-{7-[2-(4-trifluoromethyl-phenyl)-ethyl]-4,7-dihydro-5H-thieno[2,3-c]pyridin-6-yl}-acetamide] | –
11 | 0.0162 | 0.0462 | CNC(=O)C(c1ccccc1)N1CCc2sc(Cl)cc2C1CCc1ccc(OC)cc1 (single isomer, unassigned) [Example 17, 2-{2-Chloro-4-[2-(4-methoxy-phenyl)-ethyl]-6,7-dihydro-4H-thieno[3,2-c]pyridin-5-yl}-N-methyl-2-phenyl-acetamide] | –
12 | 0.0095 | 0.032 | CNC(=O)C(c1ccccc1)N1CCc2sc(Cl)cc2C1CCc1ccc(OC)cc1 (single isomer, unassigned) [Example 18, 2-{2-Chloro-4-[2-(4-methoxy-phenyl)-ethyl]-6,7-dihydro-4H-thieno[3,2-c]pyridin-5-yl}-N-methyl-2-phenyl-acetamide] | –
13 | 0.105 | 0.038 | CNC(=O)C(c1ccccc1)N1CCc2ncccc2C1CCc1ccc(OC)cc1 (single isomer, unassigned) [Example 22, 2-{5-[2-(4-Methoxy-phenyl)-ethyl]-7,8-dihydro-5H-[1,6]naphthyridin-6-yl}-N-methyl-2-phenyl-acetamide] | –
14 | 0.223 | 0.0852 | CNC(=O)C(c1ccccc1)N1CCc2ncccc2C1CCc1cccc(OC)c1 (single isomer, unassigned) [Example 23, 2-{5-[2-(3-Methoxy-phenyl)-ethyl]-7,8-dihydro-5H-[1,6]naphthyridin-6-yl}-N-methyl-2-phenyl-acetamide] | –
15 | 0.108 | 0.0296 | CNC(=O)C(c1ccccc1)N1CCc2ncccc2C1CCc1cccc(OC)c1 (single isomer, unassigned) [Example 25, 2-{5-[2-(3-Methoxy-phenyl)-ethyl]-7,8-dihydro-5H-[1,6]naphthyridin-6-yl}-N-methyl-2-phenyl-acetamide] | –
16 | 0.348 | 0.0356 | CNC(=O)C(c1ccccc1)N1CCc2ncccc2C1CCc1ccc(C(F)(F)F)cc1 (single isomer, unassigned) [Example 26, N-Methyl-2-phenyl-2-{5-[2-(4-trifluoromethyl-phenyl)-ethyl]-7,8-dihydro-5H -[1,6]naphthyridin-6-yl}-acetamide] | –
17 | 0.301 | 0.0601 | CNC(=O)C(c1ccccc1)N1CCc2ncccc2C1CCc1ccc(F)cc1 (single isomer, unassigned) [Example 28, 2-{5-[2-(4-Fluoro-phenyl)-ethyl]-7,8-dihydro-5H-[1,6]naphthyridin-6-yl}-N-methyl-2-phenyl-acetamide] | –
18 | – | – | OX-A: orexin-A/hypocretin1 hypothalamic neuropeptide, 33 amino acids; agonist of OX1R and OX2R (QPLPDCCRQKTCSCRLYELLHGAGNHAAGILTL; ends and bridges not checked; cysteine pairing not given here; UniProt O43612 34-66, looked up) | 84
